Results on 5 molecules are retold here after patent US20050277660A1, “Novel tetrahydroquinoline derivatives” (priority 2002, published 2005).

For experiment [1], the system named is Orchiectomized (ORX) Rats. The experiment in a line: Effect on prostate, femoral bone mineral density and levator ani muscle in ORX rats, subcutaneous (Test Example 2). Particulars: 4 weeks; for Femoral bone mineral density / Levator ani muscle weight / Prostate weight: 5 days per week, Mean ± SD; for Femoral bone mineral density: DEXA, right femur. The experiment is classed as in vivo, rat. The text has this: (§1) Effect on Prostate, Femoral Bone Mineral Density, and Levator Ani Muscle in Orchiectomized (ORX) Rats
Testes were removed from 12-week-old male SD rats. […] The compound of the Example and the DHT were each dissolved in dimethyl sulfoxide, and then diluted 10-fold with olive oil. The resulting solution of each concentration was used in the test. In an ORX control group, dimethyl sulfoxide diluted 10-fold with olive oil was used for the test.

Experiment [2] concerns Orchiectomized (ORX) Rats. The experiment in a line: Effect on prostate, femoral bone mineral density and levator ani muscle in ORX rats, subcutaneous (Test Example 3). Type of experiment: in vivo, rat. To be noted: 4 weeks; for Femoral bone mineral density / Levator ani muscle weight / Prostate weight: 5 days per week, Mean ± SD; for Femoral bone mineral density: DEXA, right femur.
Source text: as §1
Testes were removed from 12-week-old male SD rats. […] The compounds of the Examples and the DHT were each dissolved in dimethyl sulfoxide, and then diluted 10-fold with olive oil. The resulting solution of each concentration was used in the test. In an ORX control group, dimethyl sulfoxide diluted 10-fold with olive oil was used for the test.

Experiment [3] deals with T1, Rat Androgen Receptors (Rat AR) (Rattus norvegicus, UniProt P15207).
T1 construct: from tissue; host or cells: prostate of orchiectomized male SD rats (100,000 x g supernatant of the homogenate)
T1 sequence (P15207 1-902): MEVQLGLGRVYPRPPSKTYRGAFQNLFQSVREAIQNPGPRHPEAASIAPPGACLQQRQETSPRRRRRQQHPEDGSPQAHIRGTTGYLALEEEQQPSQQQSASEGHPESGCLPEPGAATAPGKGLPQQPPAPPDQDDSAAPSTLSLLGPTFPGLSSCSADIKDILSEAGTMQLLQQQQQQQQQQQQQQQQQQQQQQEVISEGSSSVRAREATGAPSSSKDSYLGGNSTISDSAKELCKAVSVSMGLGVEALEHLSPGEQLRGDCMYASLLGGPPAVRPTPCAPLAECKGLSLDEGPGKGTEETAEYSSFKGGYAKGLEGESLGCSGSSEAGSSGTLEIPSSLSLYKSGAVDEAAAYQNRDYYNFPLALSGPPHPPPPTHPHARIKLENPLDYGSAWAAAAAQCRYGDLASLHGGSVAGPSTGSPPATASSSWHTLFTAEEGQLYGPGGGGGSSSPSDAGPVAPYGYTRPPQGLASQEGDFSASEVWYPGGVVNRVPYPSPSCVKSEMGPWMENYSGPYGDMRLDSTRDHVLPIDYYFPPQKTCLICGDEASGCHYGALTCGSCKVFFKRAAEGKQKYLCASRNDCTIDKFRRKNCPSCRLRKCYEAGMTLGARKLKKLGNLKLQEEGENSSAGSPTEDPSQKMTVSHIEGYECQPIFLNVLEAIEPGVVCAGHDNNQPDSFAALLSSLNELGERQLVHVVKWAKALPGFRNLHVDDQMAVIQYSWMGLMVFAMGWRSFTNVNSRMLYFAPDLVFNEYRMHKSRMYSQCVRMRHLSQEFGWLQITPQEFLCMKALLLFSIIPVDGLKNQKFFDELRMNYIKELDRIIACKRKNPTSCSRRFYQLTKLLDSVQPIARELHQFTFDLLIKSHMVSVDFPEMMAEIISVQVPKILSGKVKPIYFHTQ
The experiment can be described thus: Test for competitive binding to rat androgen receptors (Test Example 1). Particulars: 100×(IC50 of bicalutamide)/(IC50 of compound); bicalutamide taken as 100; 3H-testosterone, rat prostate AR fraction. Here is the method:
Test for Competitive Binding to Rat Androgen Receptors (Rat AR)
Preparation of rat AR fraction: Prostates were harvested into ice-cooled ET buffer (10 mM Tris, 1 mM EDTA, 5 mM DTT, 10 mM sodium molybdate, pH 7.4) 3 days after orchiectomy in 11-week-old male SD rats. The prostate was finely cut, and ET buffer was added, whereafter the mixture was homogenized using a homogenizer. The homogenate was ultracentrifuged (100,000×g, 60 min, 4° C.), and the supernatant was used as a rat AR fraction (hereinafter referred to as ARF).
Binding test: ^3H-testosterone (hereinafter referred to as ^3H-T) was diluted with ET buffer. Dihydrotestosterone (DHT) was prepared so as to have a concentration (final concentration 1 μM) 400 times the maximum concentration of ^3H-T (2.5 nM). The ^3H-T solution was added to a 1.5 ml tube containing DHT, no DHT, or various concentrations of a test compound. Further, 200 μg ARF was added to adjust the final volume to 100 μl. The mixture was incubated for 2 hours at 4° C., and then 300 μl of a 0.05% dextran T70-1.0% activated carbon solution was added. The mixture was further incubated for 15 minutes in ice to remove the free ^3H-T by adsorption. […] The mixture was stirred, allowed to stand, and measured for ^3H radioactivity with a liquid scintillation counter.

The subject of experiment [4] is Orchiectomized (ORX) Rats. The experiment in a line: Effect of oral administration on prostate, femoral bone mineral density and levator ani muscle in ORX rats (Test Example 4). The experiment is classed as in vivo, rat. Particulars: 30 mg/kg orally twice daily, 4 weeks. Here is the method:
Effect of the Oral Administration on Prostate, Femoral Bone Mineral Density, and Levator Ani Muscle in Orchiectomized (ORX) Rats
Testes were removed from 12-week-old male SD rats. From the following day onward, the compound of Example 16 (30 mg/5 ml/kg) was orally administered twice daily for 4 consecutive weeks on 7 days per week. The test compound was suspended in a 0.5% methylcellulose solution as a solvent, and used in the test. In an ORX control group, a 0.5% methylcellulose solution (5 ml/kg) was administered. The rats, which had not been orchiectomized, but had been subjected to laparotomy, followed by closure of the abdomen, were used as a sham control group. On the next day after final administration, the wet weights of the ventral prostate and the levator ani muscle were measured, and the bone mineral density of the right femur was measured by the DEXA method (dual energy X-ray absorptiometry), to evaluate the in vivo effect of the compound of Example 16.

As for `CC(C)(CNC(=O)c1ccc(OC(F)(F)F)cc1)[C@H]1Nc2ccc(C#N)cc2[C@H]2CCC[C@H]21` (relative stereo) [Example 1, (3aR*,4S*,9bS*)-N-[2-(8-cyano-2,3,3a,4,5,9b-hexahydro-1H-cyclopenta[c]quinolin-4-yl)-2-methylpropyl]-4-trifluoromethoxybenzamide], in experiment [1] (30 mg/kg s.c. once daily), the “Femoral bone mineral density” value is reported as 137 ± 7 mg/cm^2, the “Levator ani muscle weight” value turned out to be 60 ± 6 mg/100 g body weight and the Prostate weight is listed as 70 ± 13 mg/100 g body weight. The “weight of the prostate relative to that in the sham control group” value (“weight of the prostate relative to that” for short) in experiment [1] (30 mg/kg s.c.) is “about 74%”.
As for `CC(C)(CNC(=O)c1ccc(OCC(F)(F)F)cc1)[C@H]1Nc2ccc(C#N)cc2[C@H]2CCC[C@H]21` (relative stereo) [Example 8, (3aR*,4S*,9bS*)-N-[2-(8-Cyano-2,3,3a,4,5,9b-hexahydro-1H-cyclopenta[c]quinolin-4-yl)-2-methylpropyl]-4-(2,2,2-trifluoroethoxy)benzamide], in experiment [2] (30 mg/kg s.c. once daily), the “Femoral bone mineral density” value worked out at 136 ± 3 mg/cm^2, the “Levator ani muscle weight” value is reported as 58 ± 6 mg/100 g body weight and the Prostate weight is reported as 62 ± 10 mg/100 g body weight. Also, in experiment [2] (30 mg/kg s.c.), the “weight of the prostate relative to that” value is “about 50%”.
Consider `CC(C)(CNC(=O)c1ccc(NC=O)cc1)[C@H]1Nc2ccc(C#N)cc2[C@H]2CCC[C@H]21` (relative stereo) [Example 16, (3aR*,4S*,9bS*)-N-[2-(8-Cyano-2,3,3a,4,5,9b-hexahydro-1H-cyclopenta[c]quinolin-4-yl)-2-methylpropyl]-4-formylaminobenzamide], for which, in experiment [3], the “RBA (relative binding inhibition rate, Relative Binding Affinity)” value is on record as 406. Also, the “weight of the prostate relative to that” value in experiment [4] was “about 90%”. Besides, the “Femoral bone mineral density” value in experiment [4] (7 days per week, DEXA, right femur, Mean ± SD) is reported as 136 ± 10 mg/cm^2. In experiment [4] (7 days per week, Mean ± SD), the “Levator ani muscle weight” value was found to be 60 ± 6 mg/100 g body weight and the Prostate weight is reported as 90 ± 24 mg/100 g body weight.
With `CC(=O)Nc1ccc(C(=O)NCC(C)(C)[C@H]2Nc3ccc(C#N)cc3[C@H]3CCC[C@H]32)cn1` (relative stereo) [Example 23, (3aR*,4S*,9bS*)-6-Acetamido-N-[2-(8-cyano-2,3,3a,4,5,9b-hexahydro-1H-cyclopenta[c]quinolin-4-yl)-2-methylpropyl]nicotinamide], in experiment [3], the “RBA (relative binding inhibition rate, Relative Binding Affinity)” value stood at 420. Moreover, in experiment [2] (30 mg/kg s.c. once daily), the “Femoral bone mineral density” value is reported as 137 ± 5 mg/cm^2, the “Levator ani muscle weight” value is 72 ± 6 mg/100 g body weight and the Prostate weight is on record as 111 ± 14 mg/100 g body weight. The “weight of the prostate relative to that” value in experiment [2] (30 mg/kg s.c.) is recorded as “about 90%”.
As to `C[C@]12CCC(=O)C[C@@H]1CC[C@@H]1[C@@H]2CC[C@]2(C)[C@@H](O)CC[C@@H]12` [DHT, dihydrotestosterone, reference compound], in experiment [1] (10 mg/kg s.c. once daily), the “Femoral bone mineral density” value was 138 ± 6 mg/cm^2, the “Levator ani muscle weight” value was found to be 74 ± 6 mg/100 g body weight and the Prostate weight is on record as 166 ± 33 mg/100 g body weight. The “weight of the prostate relative to that” value in experiment [1] (10 mg/kg s.c.) is “about 175%”. Moreover, in experiment [2] (10 mg/kg s.c. once daily), the “Femoral bone mineral density” value is on record as 138 ± 6 mg/cm^2, the “Levator ani muscle weight” value amounted to 85 ± 9 mg/100 g body weight and the Prostate weight worked out at 162 ± 27 mg/100 g body weight. Besides, the “weight of the prostate relative to that” value in experiment [2] (10 mg/kg s.c.) was “about 130%”.
